Measurements reported in patent US12178809B2, “Pyridinyl sulfonamide derivatives, pharmaceutical compositions and uses thereof” (Boehringer Ingelheim International GmbH, priority 2018, dated 2024).
pIC50: −log10 of the molar value. Where a name gives a salt, the structure may show the parent alone. Read-outs that look alike come from different tables or passages of the source.

Key:
AOC1 = AOC1 (Homo sapiens (Human), UniProt P19801); assay: AOC1 biochemical assay (Amplex Red)
Description: The Amplex® Red Assay (available from Thermo Fisher Scientific) provides a sensitive method for the detection of H2O2 generated during enzymatic reactions like the amine oxidation catalyzed by AOC1. The assay reagent is a colorless substrate (N-acetyl-3,7-dihydroxyphenoxazine) that reacts in a 1:1 stoichiometry with hydrogen peroxide (H2O2) to produce the fluorescent dye resorufin (7-hydroxyphenoxazin-3-one, excitation/emission maxima=570/585 nm).
An aliquot of 3 μL of the compound dilution is added to a 384 well plate (Optiplate, PS, flat bottom F, black, PERKIN ELMER, #6007270) in a DMSO concentration of 6.6%.
An AOC1 enzyme aliquot (#8297-AO-010, R&D Systems) is thawed on ice, diluted in reaction buffer and added in a volume of 7 μL to the wells to give a final assay concentration of 1 ng/well. After incubation of inhibitor and enzyme for 30 minutes at 37° C., the enzymatic reaction is started with the addition of 10 μL of Amplex® Red reaction mix (final assay concentration: 100 mM sodiumphosphate, 120 μM Amplex® Red reagent (#A22177 Molecular Probes), 1.5 U/mL Horseradish Peroxidase (#P8375 Sigma-Aldrich), 200 μM putrescine (#P7505 Sigma-Alrdich), 0.05% Pluronic F-127 (#P3000MP Sigma-Aldrich), pH 7.4, 37° C.).
After an incubation for 30 minutes at 37° C. the turnover of the substrate is determined directly (or after the addition of an excess of an amine-oxidase inhibitor) with a fluorescence reader (Ex 540 nm/Em 590 nm) like Envision 2104 Multilabel Reader (PERKIN ELMER).

AOC2 = AOC2 (Homo sapiens (Human), UniProt O75106); assay: AOC2 biochemical assay (Amplex Red)
Sequence of AOC2 (O75106 whole entry): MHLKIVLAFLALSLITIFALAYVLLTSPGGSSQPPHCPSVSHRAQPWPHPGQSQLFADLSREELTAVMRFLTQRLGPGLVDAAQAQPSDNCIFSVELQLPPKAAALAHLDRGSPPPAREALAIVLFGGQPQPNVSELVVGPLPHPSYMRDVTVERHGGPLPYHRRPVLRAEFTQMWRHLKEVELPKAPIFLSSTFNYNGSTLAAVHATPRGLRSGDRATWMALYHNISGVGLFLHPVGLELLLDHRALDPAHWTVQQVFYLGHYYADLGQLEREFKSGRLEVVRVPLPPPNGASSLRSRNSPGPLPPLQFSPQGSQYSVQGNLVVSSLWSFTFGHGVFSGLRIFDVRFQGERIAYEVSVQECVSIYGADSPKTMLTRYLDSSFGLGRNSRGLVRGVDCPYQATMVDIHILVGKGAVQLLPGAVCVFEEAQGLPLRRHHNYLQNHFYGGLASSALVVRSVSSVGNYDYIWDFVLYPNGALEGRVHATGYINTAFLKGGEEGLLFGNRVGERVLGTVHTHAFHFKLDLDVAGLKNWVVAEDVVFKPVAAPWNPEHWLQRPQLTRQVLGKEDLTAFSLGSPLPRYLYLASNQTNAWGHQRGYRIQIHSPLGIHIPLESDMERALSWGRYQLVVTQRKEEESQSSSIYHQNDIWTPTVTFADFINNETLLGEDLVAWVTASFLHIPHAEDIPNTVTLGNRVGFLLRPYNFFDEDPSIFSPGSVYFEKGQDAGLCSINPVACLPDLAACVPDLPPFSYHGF
Description: An aliquot of 5 μL of the compound dilution is added to a 96 well plate (flat bottom F, black, GREINER bio-one, #655900) in a DMSO concentration of 2%. […] Cells are cultured for 3 days in EMEM culture medium containing 10% FCS (#04-00-1A, Biological Industries). After washing twice with ice cold PBS, cells are lysed by mechanic homogenation and cleared supernatants are shock frozen in liquid nitrogen and stored at -80° C. […] An Aliquot of 45 μL is added to the compound dilution and incubated for 30 min at 37° C. The enzymatic reaction is started with the addition of 50 μL of Amplex® Red reaction mix (final assay concentration: 100 mM sodiumphosphate, 120 μM Amplex® Red reagent (#A22177 Molecular Probes), 1.5 U/mL Horseradish Peroxidase (#P8375 Sigma-Aldrich), 2 mM phenylethylamine (#[…] Sigma-Aldrich), 0.05% Pluronic F-127 (#P3000MP Sigma-Aldrich), pH 7.4, 37° C.). The turnover per time of the substrate is determined directly with a fluorescence reader (Ex 540 nm/Em 590 nm) like Envision 2104 Multilabel Reader (PERKIN ELMER) for 60 min.

human AOC3 enzyme = human AOC3 enzyme (Homo sapiens (Human), UniProt Q16853); assay: AOC3 biochemical assay (MAO-Glo)
Sequence of human AOC3 enzyme (Q16853 whole entry): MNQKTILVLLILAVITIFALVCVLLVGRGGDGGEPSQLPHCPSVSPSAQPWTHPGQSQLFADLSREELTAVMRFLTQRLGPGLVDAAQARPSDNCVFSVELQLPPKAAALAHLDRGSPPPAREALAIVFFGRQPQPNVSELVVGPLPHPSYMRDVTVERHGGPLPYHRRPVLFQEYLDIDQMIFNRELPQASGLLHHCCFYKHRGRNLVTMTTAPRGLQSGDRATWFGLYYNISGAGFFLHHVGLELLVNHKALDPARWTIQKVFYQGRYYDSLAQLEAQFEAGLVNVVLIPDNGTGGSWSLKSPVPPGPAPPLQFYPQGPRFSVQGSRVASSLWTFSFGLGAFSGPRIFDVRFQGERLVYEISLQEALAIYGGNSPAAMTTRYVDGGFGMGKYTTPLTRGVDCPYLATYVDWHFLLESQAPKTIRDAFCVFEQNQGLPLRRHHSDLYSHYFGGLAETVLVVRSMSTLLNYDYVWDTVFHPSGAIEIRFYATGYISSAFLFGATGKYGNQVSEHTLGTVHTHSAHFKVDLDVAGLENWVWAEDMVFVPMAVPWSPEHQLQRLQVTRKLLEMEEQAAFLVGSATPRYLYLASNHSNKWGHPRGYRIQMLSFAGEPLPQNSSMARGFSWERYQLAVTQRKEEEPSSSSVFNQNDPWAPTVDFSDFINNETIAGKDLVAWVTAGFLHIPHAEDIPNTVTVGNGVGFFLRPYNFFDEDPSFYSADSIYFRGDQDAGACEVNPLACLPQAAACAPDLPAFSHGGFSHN
Text: The MAO-Glo™ Assay (commercially available from PROMEGA, #V1402) provides a sensitive method for the measurement of monoamine oxidase (MAO) activity (Valley, M. P. et al., 2006, Anal. Biochem. 359: 238-246) from a variety of tissues, biofluids or recombinant expressed or purified enzymes. As substrate a derivate of the beetle luciferin ((4S)-4,5-dihydro-2-(6-hydroxybenzothiazolyl)-4-thiazole-carboxylic acid) is used, which is oxidized at a primary amine moiety. After a spontaneous elimination and a catalyzed esterase reaction, the turnover of the luciferine by the luciferase is recorded as a signal of AOC3 activity.
An aliquot of 3 μL of the compound dilution is added to a 384 well plate (Optiplate, PS, flat bottom, white, PERKIN ELMER, #6007290) with a final DMSO concentration of 6.6%. Recombinant CHO cells, overexpressing the human (1500 cells/well), mouse (1000 cells/well) or rat (500 cells/well) AOC3 enzyme are diluted in reaction buffer and added in a volume of 15 μL to the wells. After incubation for 20 minutes at 37° C., 2 μL of MAO substrate (dissolved in DMSO at 16 mM, adjusted to assay concentration in reaction buffer to a final assay concentration of 20 μM) is added and further incubated for 60 minutes at 37° C. The turnover of the substrate is determined by the addition of 20 μL of the detection-mix which was generated by the addition of reconstitution buffer with esterase (PROMEGA, #V1402) to the luciferine detection reagent (PROMEGA, #V1402). After an incubation period of 20 minutes, the luminescent signal is measured with Envision 2104 Multilabel Reader (PERKIN ELMER).

[1] = comparison table, read-out: IC50 AOC1
[2] = comparison table, read-out: IC50 AOC2
[3] = comparison table, read-out: IC50 AOC3

Sequence of AOC1 (P19801 20-751): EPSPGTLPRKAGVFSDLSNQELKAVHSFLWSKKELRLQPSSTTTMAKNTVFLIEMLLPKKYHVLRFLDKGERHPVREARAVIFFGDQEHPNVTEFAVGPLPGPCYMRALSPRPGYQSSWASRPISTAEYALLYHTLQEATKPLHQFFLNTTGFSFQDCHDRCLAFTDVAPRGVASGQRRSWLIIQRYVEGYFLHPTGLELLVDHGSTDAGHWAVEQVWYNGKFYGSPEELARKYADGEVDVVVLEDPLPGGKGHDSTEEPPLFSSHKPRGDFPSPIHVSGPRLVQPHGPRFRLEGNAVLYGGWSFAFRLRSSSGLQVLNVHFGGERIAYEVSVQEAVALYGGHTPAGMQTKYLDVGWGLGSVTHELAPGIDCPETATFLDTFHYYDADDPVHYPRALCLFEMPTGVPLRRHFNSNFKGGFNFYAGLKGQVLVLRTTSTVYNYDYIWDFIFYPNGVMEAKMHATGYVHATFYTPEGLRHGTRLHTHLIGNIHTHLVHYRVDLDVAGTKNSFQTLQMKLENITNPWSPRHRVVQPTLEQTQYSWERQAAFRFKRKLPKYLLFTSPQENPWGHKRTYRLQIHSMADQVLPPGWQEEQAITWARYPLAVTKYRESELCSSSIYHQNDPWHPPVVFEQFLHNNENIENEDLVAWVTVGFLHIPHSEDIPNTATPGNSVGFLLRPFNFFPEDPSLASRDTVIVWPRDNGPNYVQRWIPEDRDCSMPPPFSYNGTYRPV

Structure (SMILES)	pIC50 (AOC1; read-out: AOC1 IC50)	pIC50 (AOC2; read-out: AOC2 IC50)	pIC50 (human AOC3 enzyme; read-out: AOC3 IC50)	also measured
CN(C)S(=O)(=O)c1ccc(OC/C(=C/F)CN)cc1 [Compound 14 of WO 2013/163675, reference compound]	–	–	–	pIC50 (AOC1; [1]): < 4.30; fold less active against AOC2 as compared to AOC3 (ratio IC50 AOC2/IC50 AOC3) (AOC2): ca. 145 fold; pIC50 (AOC2; [2]): 5.93; pIC50 (AOC2; read-out: IC50 AOC2): 5.93; pIC50 (human AOC3 enzyme; [3]): 8.10
CNC(=O)[C@H]1[C@@H]2CN(S(=O)(=O)c3ccc(OC/C(=C/F)CN)nc3)C[C@@H]21 [Example 01, trans-3-[6-((E)-2-Aminomethyl-3-fluoro-allyloxy)-pyridine-3-sulfonyl]-3-aza-bicyclo[3.1.0]hexane-6-carboxylic acid methylamide trifluoroacetate]	4.36	6.79	7.92	–
NC/C(=C\F)COc1cnc(N2CCC(O)CC2)nc1 [Example 2 of WO 2018/027892, reference compound]	–	–	–	pIC50 (AOC1; [1]): 6.57; pIC50 (human AOC3 enzyme; [3]): 7.70
CCC(=O)NC1CCN(S(=O)(=O)c2ccc(OC/C(=C/F)CN)nc2)CC1 [Example 02]	< 4.30	5.94	7.48	–
CNC(=O)[C@@]12C[C@@H]1CN(S(=O)(=O)c1ccc(OC/C(=C/F)CN)nc1)C2 [Example 03]	4.63	5.99	7.60	–
NC/C(=C\F)COc1ccc(S(=O)(=O)N2CCC(N3CCNC3=O)CC2)cn1 [Example 04]	< 4.30	6.09	7.31	–
CO[C@H]1CCN(c2ncc(OC/C(=C/F)CN)cn2)C1 [Example 5 of WO 2018/027892, reference compound]	–	–	–	pIC50 (AOC1; [1]): 6.57; pIC50 (AOC2; [2]): 6.30; pIC50 (human AOC3 enzyme; [3]): 7.89
NC/C(=C\F)COc1cnc(N2CC[C@H](O)C2)nc1 [Example 6 of WO 2018/027892, reference compound]	–	–	–	pIC50 (AOC1; [1]): 5.93; pIC50 (AOC2; [2]): 5.95; pIC50 (human AOC3 enzyme; [3]): 7.23
CC(=O)N[C@H]1CCCN(S(=O)(=O)c2ccc(OC/C(=C/F)CN)nc2)C1 [Example 06]	< 4.30	6.23	–	–
CNC(=O)NC1CCN(S(=O)(=O)c2ccc(OC/C(=C/F)CN)nc2)CC1 [Example 07]	< 4.30	6.27	7.43	–
CN(C(N)=O)C1CCN(S(=O)(=O)c2ccc(OC/C(=C/F)CN)nc2)CC1 [Example 08]	< 4.30	6.28	7.43	–
NC/C(=C\F)COc1ccc(S(=O)(=O)N2CCC(C(=O)N3CCOCC3)(c3ccccc3)CC2)cn1 [Example 09]	5.21	6.31	7.41	–
NC/C(=C\F)COc1ccc(S(=O)(=O)N2CCC(C(=O)N3CCOCC3)CC2)cn1 [Example 10]	< 4.30	6.39	7.28	–
CCNC(=O)C1CCN(S(=O)(=O)c2ccc(OC/C(=C/F)CN)nc2)CC1 [Example 11]	< 4.30	6.40	7.92	–
CN(C)C(=O)C1CCN(S(=O)(=O)c2ccc(OC/C(=C/F)CN)nc2)CC1 [Example 12]	< 4.30	6.41	7.42	–
NC/C(=C\F)COc1ccc(S(=O)(=O)N2CCC(C(=O)N3CCC3)CC2)cn1 [Example 13]	< 4.30	6.45	7.37	–
CC(=O)N1CC(C2CCN(S(=O)(=O)c3ccc(OC/C(=C/F)CN)nc3)CC2)C1 [Example 14]	4.85	6.51	7.39	–
CC(=O)NCC1CCN(S(=O)(=O)c2ccc(OC/C(=C/F)CN)nc2)CC1 [Example 15]	< 4.30	6.58	7.42	–
CN(C)C(=O)CC1CCN(S(=O)(=O)c2ccc(OC/C(=C/F)CN)nc2)CC1 [Example 16]	< 4.30	6.58	7.52	–

Structure (SMILES)	pIC50 (AOC1; read-out: AOC1 IC50)	pIC50 (AOC2; read-out: AOC2 IC50)	pIC50 (human AOC3 enzyme; read-out: AOC3 IC50)	also measured
NC/C(=C\F)COc1ccc(S(=O)(=O)N2CCC(C(N)=O)CC2)cn1 [Example 17]	< 4.30	6.60	8.10	–
CC1(O)CN(S(=O)(=O)c2ccc(OC/C(=C/F)CN)nc2)C1 [Example 18]	< 4.30	6.61	7.43	–
CCNC(=O)CC1CCN(S(=O)(=O)c2ccc(OC/C(=C/F)CN)nc2)CC1 [Example 19]	< 4.30	6.67	7.49	–
CC(=O)N(C)C1CCN(S(=O)(=O)c2ccc(OC/C(=C/F)CN)nc2)CC1 [Example 20]	< 4.30	6.72	7.27	–
CN1CCN(C2CCN(S(=O)(=O)c3ccc(OC/C(=C/F)CN)nc3)CC2)C1=O [Example 21]	< 4.30	6.72	7.70	–
COC(=O)CC1CCN(S(=O)(=O)c2ccc(OC/C(=C/F)CN)nc2)CC1 [Example 22]	< 4.30	6.73	7.96	–
CC(=O)NC1CCN(S(=O)(=O)c2ccc(OC/C(=C/F)CN)nc2)C1 (stereo not drawn) [Example 23]	< 4.30	6.74	7.21	–
CNC(=O)[C@@H]1CCN(S(=O)(=O)c2ccc(OC/C(=C/F)CN)nc2)C1 [Example 24]	< 4.30	6.78	–	–
NC/C(=C\F)COc1ccc(S(=O)(=O)N2CC[C@H](C(=O)N3CCOCC3)C2)cn1 [Example 25]	4.57	6.79	7.44	–
CC(C)(O)C1CN(S(=O)(=O)c2ccc(OC/C(=C/F)CN)nc2)C1 [Example 26]	< 4.30	6.79	7.35	–
CN(C)C(=O)[C@H]1CCN(S(=O)(=O)c2ccc(OC/C(=C/F)CN)nc2)C1 [Example 27]	< 4.30	6.80	7.29	–
CNC(=O)[C@H]1CCN(S(=O)(=O)c2ccc(OC/C(=C/F)CN)nc2)C1 [Example 29]	< 4.30	6.82	–	–
COCCN(C)C(=O)[C@H]1[C@@H]2CN(S(=O)(=O)c3ccc(OC/C(=C/F)CN)nc3)C[C@@H]21 [Example 59]	4.56	–	7.74	–
NC/C(=C\F)COc1ccc(S(=O)(=O)N2CCC(C(=O)NCCO)CC2)cn1 [Example 62]	< 4.30	–	7.74	–
NC/C(=C\F)COc1ccc(S(=O)(=O)N2CCC(C(=O)NC3CC3)CC2)cn1 [Example 63]	< 4.30	–	7.72	–
NC/C(=C\F)COc1ccc(S(=O)(=O)N2CCC(C(=O)NCCF)CC2)cn1 [Example 64]	< 4.30	–	7.77	–
CC(F)(F)CNC(=O)C1CCN(S(=O)(=O)c2ccc(OC/C(=C/F)CN)nc2)CC1 [Example 65]	< 4.30	–	7.96	–
COCCNC(=O)[C@H]1[C@@H]2CN(S(=O)(=O)c3ccc(OC/C(=C/F)CN)nc3)C[C@@H]21 [Example 66]	4.51	–	7.64	–
NC/C(=C\F)COc1ccc(S(=O)(=O)N2CC[C@H](O)C2)cc1 [Reference compound B, reference compound]	–	–	–	IC50 (AOC1; comparison table, unit μM, read-out: IC50 AOC1): > 50 µM; pIC50 (human AOC3 enzyme; [3]): 7.57
